In this experiment the target is T1, Tyrosine-protein phosphatase non-receptor type 22 (Homo sapiens, UniProt Q9Y2R2).
T1 sequence (Q9Y2R2 whole entry): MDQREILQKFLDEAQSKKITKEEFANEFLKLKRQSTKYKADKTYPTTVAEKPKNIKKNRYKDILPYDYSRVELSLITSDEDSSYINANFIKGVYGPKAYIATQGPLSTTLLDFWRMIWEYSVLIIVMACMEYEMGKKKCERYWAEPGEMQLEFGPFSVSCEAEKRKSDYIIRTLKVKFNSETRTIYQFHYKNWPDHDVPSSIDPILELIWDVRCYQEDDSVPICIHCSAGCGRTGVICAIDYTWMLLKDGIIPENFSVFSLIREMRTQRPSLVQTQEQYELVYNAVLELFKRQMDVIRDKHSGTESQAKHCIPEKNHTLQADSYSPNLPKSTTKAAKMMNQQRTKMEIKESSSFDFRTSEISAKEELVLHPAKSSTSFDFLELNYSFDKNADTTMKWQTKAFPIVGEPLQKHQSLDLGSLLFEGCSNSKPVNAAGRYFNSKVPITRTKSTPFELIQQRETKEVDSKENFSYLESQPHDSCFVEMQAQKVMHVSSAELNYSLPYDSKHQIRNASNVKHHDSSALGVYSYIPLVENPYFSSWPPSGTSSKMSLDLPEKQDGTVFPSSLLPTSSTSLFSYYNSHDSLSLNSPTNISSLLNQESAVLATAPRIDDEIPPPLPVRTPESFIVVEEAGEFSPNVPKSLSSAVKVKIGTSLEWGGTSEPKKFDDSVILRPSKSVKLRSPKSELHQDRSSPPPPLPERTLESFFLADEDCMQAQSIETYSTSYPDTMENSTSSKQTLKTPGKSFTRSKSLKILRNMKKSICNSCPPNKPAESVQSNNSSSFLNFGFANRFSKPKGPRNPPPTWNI
Nature of the experiment: LYP phosphatase inhibitor potency, dose response, biochemical, pCAP substrate, fluorescence intensity (AID 435027).
For `N=C(NN=Cc1ccc2c(c1)OCO2)Sc1cc(O)n(-c2ccc(C(=O)O)cc2)c1O` [4-(3-{[[(2E)-2-(1,3-benzodioxol-5-ylmethylene)hydrazino](imino)methyl]thio}-2,5-dioxopyrrolidin-1-yl)benzoic acid], 7.65 µM corresponded to half-maximal inhibition (IC50).
Next, `Cc1ccc(NN=C2C(=O)N(CN3CCOCC3)c3ccccc32)cc1` [(3Z)-3-[(4-methylphenyl)hydrazinylidene]-1-(4-morpholinylmethyl)-2-indolone]: > 79.4 µM.
Next, `O=C1C([N+](=O)[O-])=CC(Br)=CC1/C=N/n1cnnc1` (stereo not given) [MLS000714804]: > 79.4 µM; `CCOC(=O)NC(=O)C(C=Nc1ccc(C)cc1)C(=O)NC(=O)OCC` [ethyl 2-{[(ethoxycarbonyl)amino]carbonyl}-3-(4-toluidino)acryloylcarbamate]: > 79.4 µM; `COC1=CC=CC(/C=N/NC(=O)c2cc3cc([N+](=O)[O-])ccc3s2)C1=O` (stereo not given) [SMR000237814]: 15.7 µM.

The values above are taken from BindingDB's records for doi:10.7270/Q24748BK (Burnham Center For Chemical Genomics, 2010).
